Experimental data from US3983120A, “Process for the preparation of optionally substituted 1,2,3,5-tetrahydroimidazo[2,1-b]quinazolin-2-ones” (Bristol-Myers Company, priority 1974, dated 1976).

Legend:
[1] = literature, in words; cited from earlier work
[2] = tested on: ADP-induced aggregation of blood platelet-rich plasma; assay: In Vivo/In Vitro platelet aggregation (ADP) after P.O. dosing of dogs; conditions: one to two hours after dosing
Experimental: (§1) *In vivo/In vitro testing:
(§2) Before dosing the animals, blood samples are taken. The blood is centrifuged to obtain the blood platelet-rich plasma. Aggregation of this plasma is induced with ADP or collagen. This is the control.
(§3) The animals are then dosed with the compounds to be tested (orally or parenterally). Depending upon the route of administration, one to two hours are allowed to elapse after dosing. Blood is drawn and the same procedure employed as for the control is untreated animals.

[3] = tested on: ADP-induced aggregation of blood platelet-rich plasma; assay: In Vivo/In Vitro platelet aggregation (ADP) after I.P. dosing of rabbits; conditions: Oryctolagus cuniculus, ip, 2 h, dose for 50% inhibition of aggregation, one to two hours after dosing
Experimental: as §1, §2, §3
The dose required to produce 50% inhibition of the aggregation is determined by dose response data obtained in this manner.

| SMILES | antihypertensive / hypotensive activity of prior art compounds [1] | In Vivo/In Vitro Dogs P.O. 5 mg./kg. ADP % Inhibition [2] [%] | ED50 [3] [mg/kg] |
| --- | --- | --- | --- |
| c1ccc2c(c1)CN1CCNC1=N2 [SPC2] | potent antihypertensive activity in rats, dogs, cats and rabbits | – | – |
| CC1c2ccccc2N=C2NC(=O)CN21 (stereo not drawn) [Compound 29] | – | 35 | 7 |
